Results as given in US12150927B2, “Use of cannabidiolic acid in the treatment of autism spectrum disorder and associated disorders” (GW Research Limited, priority 2016, dated 2024).

What was measured:
[1] = tested on: Ube3am-/p+ (AS) mice; experiment: Clasping test, mouse model of Angelman syndrome; format: in vivo; details: chronic treatment (30 days) CBDA 20 mg/kg i.p., 10 weeks of age, vs AS vehicle, FIG. 12
Protocol: (§1) Heterozygous mice with maternal deficiency of Ube3A (Ube3am−/p+) and wild type (Ube3am+/p+) were purchased from The Jackson Laboratory (Jackson code: B6.129S7-Ube3a tm1Alb/J) and maintained in a C57BL/6 background.
Drugs were dissolved in 1:1:18 ethanol:cremophor:0.9% saline, for intraperitoneal (i.p.) administration. […] CBDA was administered at 20 mg/kg.
Clasping: The clasping test assesses ataxia in mice. Mice were suspended by the base of the tail and their behaviours were recorded for 30 seconds. The time for which the mice clasped their hind limbs was recorded. The time was then scored as follows: 4, 15-30 s, 3, 10-15 s, 2, 5-10 s, 1, 0-5 s and 0, 0 s

[2] = tested on: Fmr1 KO mice; experiment: Novel object recognition task, mouse model of fragile X syndrome; format: in vivo
Protocol: Fmr1 KO mice and wild type mice were obtained and housed four per cage in a temperature of 21° C.±1° C. and humidity of 55%±10% controlled environment. Food and water were available ad libitum. All experiments were performed during the light phase of a 12 hour light/dark cycle (08:00 to 20:00). Animals were handled for one week before the start of experiments. All behavioural tests were performed by researchers blind to the different experimental groups.
On day one mice were habituated for 10 minutes to the empty V-maze in which the task was to be performed. On the second day the mice went back to the maze for 10 minutes which contained two identical objects at the end of each corridor in the V-maze.
The following day the mice were placed again in the same maze for a further 10 minutes but one of the familiar objects was replaced for a novel object. The total time spent exploring the novel and familiar object was recorded. A discrimination index was calculated as the difference between the time spent exploring the novel and familiar object divided by the total time exploring the two objects. A high discrimination index (0.3-0.5) is considered to reflect memory retention for the familiar object.
Adult mice […] were treated either acutely with one dose of 20 mg/kg CBDA on PND 21 for 7 consecutive days. Mice were evaluated in the novel object recognition task after the first and sixth day of CBDA administration.

[3] = tested on: offspring of VPA-exposed rats; experiment: Sociability and preference for social novelty, 3-chamber apparatus, rat VPA model; format: in vivo, Sprague-Dawley rats
Protocol: Pregnant Sprague-Dawley rats (Charles River, Calco, Italy), received a single intraperitoneal injection of 500 mg/kg sodium valproate on the 12.5 day after conception, and control females were injected with physiological saline at the same time. Sodium valproate (Sigma Aldrich, Milan, IT) was dissolved in saline at a concentration of 250 mg/ml.
CBDA was dissolved in ethanol, cremophor and saline (1:1:18). Symptomatic treatment with CBDA at doses of 2 and 20 mg/kg/day i.p. was performed starting from PND 34 (early adolescence) till 56 (early adulthood), both in male and female offspring of dams injected with VPA 500 mg/kg (or vehicle) on day 12.5 after conception. At PND 56, a series of behavioural tests was performed in order to assess the effect of chronic CBDA on sociability, social novelty, short-term memory, locomotion and stereotyped/repetitive behaviours.
Sociability and preference for social novelty: These behaviours were investigated in a 3-chamber apparatus which allows for the measurement of social approach and social preference. In brief, animals were placed into a novel arena (80 cm×31.5 cm) composed of three communicating chambers separated by Perspex walls with central openings allowing access to all chambers for 5 min.
Following this acclimatisation period, animals were briefly confined to the central chamber while an unfamiliar rat confined in a small wire cage was placed in one of the outer chambers. An identical empty wire cage was placed in the other chamber. […] Time spent engaging in investigatory behaviour with the rat was evaluated with the aid of Anymaze program (Ugo Basile, Italy) in order to examine social approach.
To investigate the preference for social novelty, a novel unfamiliar rat was then placed in the empty cage and the test animal was then allowed to explore the arena/chambers for a further 5 min. Time spent engaging in investigatory behaviour with the novel unfamiliar rat was evaluated with the aid of Anymaze program (Ugo Basile, Italy) in order to examine preference for social novelty.

[4] = tested on: animal models of seizure; details: co-pending UK patent application GB1514079.1; cited from earlier work
[5] = tested on: Ube3am-/p+ (AS) mice; experiment: Novel object recognition, mouse model of Angelman syndrome; format: in vivo; details: CBDA 20 mg/kg i.p., age 7-8 weeks, vs AS vehicle
Protocol: as §1
Drugs were dissolved in 1:1:18 ethanol:cremophor:0.9% saline, for intraperitoneal (i.p.) administration. Drug treatment was performed daily for 35 days. CBDA was administered at 20 mg/kg.
Novel Object Recognition: The novel object recognition assesses recognition memory in mice. The experiment started with the habituation period, during which mice were allowed to freely explore for 1 hour the apparatus which consists of a rectangular open box (40×30×30 cm width×length×height) made of grey polyvinyl chloride (PVC) illuminated by a dim light. The day after each mouse was allowed to explore two identical objects positioned in the back left and right corners for 5 min (acquisition). A video camera recorded the time spent on exploration of each object. […] The behaviour of mice was analyzed by an observer blind to the treatment. Data are expressed as percentage of recognition index (RI %), which was calculated as the percentage of the time spent exploring the novel object/time spent exploring the novel object+time spent exploring the familiar object×100.

For `C=C(C)[C@@H]1CCC(C)=C[C@H]1c1c(O)cc(CCCCC)c(C(=O)O)c1O` [CBDA, Cannabidiolic acid], the clasping duration [1] was “significantly reduced clasping duration”, the discrimination index level ([2]; Fmr1 KO mice treated with CBDA over 7 days) was 0.32 and the discrimination index ([2]; acute treatment, CBDA 20 mg/kg, Fmr1 KO mice vs KO vehicle, FIG. 3) was “increase the discrimination index slightly over that of the knockout mice administered vehicle, however this was not significant”. For the same compound, the “discrimination index (effect vs vehicle)” value ([2]; chronic treatment, once daily for 7 days, CBDA 20 mg/kg, Fmr1 KO mice, FIG. 4) was “statistically significant increase in the discrimination index”, the preference index ([3]; CBDA 20 mg/kg/day i.p. PND 34-56, VPA rats, FIG. 1C) was “significantly counteracted the impairment in sociability” and the social novelty preference ([3]; CBDA 20 mg/kg/day i.p. PND 34-56, male VPA rats, FIG. 1A) was “statistically significant effect in males on restoration of social novelty preference”. The sociability ([3]; CBDA at both doses (2 and 20 mg/kg/day i.p.) PND 34-56, VPA rats, FIG. 1B) was “significantly reduced the impairment in sociability”, the “efficacy in animal models of seizure” value [4] was “effective in animal models of seizure” and the discrimination index [5] was “increased the discrimination index”.
